Experimental data taken from PMC6099740, “Design, Synthesis and Biological Evaluation of 6,7-Disubstituted-4-phenoxyquinoline Derivatives Bearing Pyridazinone Moiety as c-Met Inhibitors” (Molecules : A Journal of Synthetic Chemistry and Natural …, 2018).

Key:
[1] = tested on: A549 cells; assay: MTT cytotoxicity assay, A549; format: cell-based; conditions: Homo sapiens, 72 h
Procedure: (§1) The results expressed as IC50 values were summarized in Table 1, and the values were the average of at least two independent experiments.
(§2) The cancer cell lines were cultured in minimum essential medium (MEM) supplement with 10% fetal bovine serum (FBS). […] The test compounds at indicated final concentrations were added to the culture medium and the cell cultures were continued for 72 h. […] All of the compounds were tested two times in each of the cell lines. The results expressed as inhibition rates or IC50 (half-maximal inhibitory concentration) were the averages of two determinations and calculated by using the Bacus Laboratories Incorporated Slide Scanner (Bliss) software (the Bacus Laboratories Inc. Slide Scanner (BLISS) system, Lombard, IL, USA)..

[2] = tested on: HepG2 cells; assay: MTT cytotoxicity assay, HepG2; format: cell-based; conditions: Homo sapiens, 72 h
Procedure: as §1
(§3) The cancer cell lines were cultured in minimum essential medium (MEM) supplement with 10% fetal bovine serum (FBS). Approximately 4 × 10^3 cells, suspended in MEM medium, were plated onto each well of a 96-well plate and incubated in 5% CO2 at 37 °C for 24 h. The test compounds at indicated final concentrations were added to the culture medium and the cell cultures were continued for 72 h. Fresh MTT was added to each well at a terminal concentration of 5 μg/mL and incubated with cells at 37 °C for 4 h. The formazan crystals were dissolved in 100 μL DMSO each well, and the absorbency at 492 nm (for absorbance of MTT formazan) and 630 nm (for the reference wavelength) was measured with the ELISA reader. All of the compounds were tested two times in each of the cell lines. The results expressed as inhibition rates or IC50 (half-maximal inhibitory concentration) were the averages of two determinations and calculated by using the Bacus Laboratories Incorporated Slide Scanner (Bliss) software (the Bacus Laboratories Inc. Slide Scanner (BLISS) system, Lombard, IL, USA)..

[3] = tested on: MCF-7 cells; assay: MTT cytotoxicity assay, MCF-7; format: cell-based; conditions: Homo sapiens, MCF7, 72 h
Procedure: as §1, §2

[4] = tested on: A549, HepG2, MCF-7; assay: MTT cytotoxicity assay, range over the three cancer cell lines; format: cell-based; conditions: Homo sapiens; range over A549, HepG2 and MCF-7
Procedure: as §1, §3

[5] = biological target: c-Met kinase (Homo sapiens, UniProt P08581); assay: c-Met kinase inhibition assay (HTRF; mobility shift)
c-Met kinase, sequence (P08581 25-1390): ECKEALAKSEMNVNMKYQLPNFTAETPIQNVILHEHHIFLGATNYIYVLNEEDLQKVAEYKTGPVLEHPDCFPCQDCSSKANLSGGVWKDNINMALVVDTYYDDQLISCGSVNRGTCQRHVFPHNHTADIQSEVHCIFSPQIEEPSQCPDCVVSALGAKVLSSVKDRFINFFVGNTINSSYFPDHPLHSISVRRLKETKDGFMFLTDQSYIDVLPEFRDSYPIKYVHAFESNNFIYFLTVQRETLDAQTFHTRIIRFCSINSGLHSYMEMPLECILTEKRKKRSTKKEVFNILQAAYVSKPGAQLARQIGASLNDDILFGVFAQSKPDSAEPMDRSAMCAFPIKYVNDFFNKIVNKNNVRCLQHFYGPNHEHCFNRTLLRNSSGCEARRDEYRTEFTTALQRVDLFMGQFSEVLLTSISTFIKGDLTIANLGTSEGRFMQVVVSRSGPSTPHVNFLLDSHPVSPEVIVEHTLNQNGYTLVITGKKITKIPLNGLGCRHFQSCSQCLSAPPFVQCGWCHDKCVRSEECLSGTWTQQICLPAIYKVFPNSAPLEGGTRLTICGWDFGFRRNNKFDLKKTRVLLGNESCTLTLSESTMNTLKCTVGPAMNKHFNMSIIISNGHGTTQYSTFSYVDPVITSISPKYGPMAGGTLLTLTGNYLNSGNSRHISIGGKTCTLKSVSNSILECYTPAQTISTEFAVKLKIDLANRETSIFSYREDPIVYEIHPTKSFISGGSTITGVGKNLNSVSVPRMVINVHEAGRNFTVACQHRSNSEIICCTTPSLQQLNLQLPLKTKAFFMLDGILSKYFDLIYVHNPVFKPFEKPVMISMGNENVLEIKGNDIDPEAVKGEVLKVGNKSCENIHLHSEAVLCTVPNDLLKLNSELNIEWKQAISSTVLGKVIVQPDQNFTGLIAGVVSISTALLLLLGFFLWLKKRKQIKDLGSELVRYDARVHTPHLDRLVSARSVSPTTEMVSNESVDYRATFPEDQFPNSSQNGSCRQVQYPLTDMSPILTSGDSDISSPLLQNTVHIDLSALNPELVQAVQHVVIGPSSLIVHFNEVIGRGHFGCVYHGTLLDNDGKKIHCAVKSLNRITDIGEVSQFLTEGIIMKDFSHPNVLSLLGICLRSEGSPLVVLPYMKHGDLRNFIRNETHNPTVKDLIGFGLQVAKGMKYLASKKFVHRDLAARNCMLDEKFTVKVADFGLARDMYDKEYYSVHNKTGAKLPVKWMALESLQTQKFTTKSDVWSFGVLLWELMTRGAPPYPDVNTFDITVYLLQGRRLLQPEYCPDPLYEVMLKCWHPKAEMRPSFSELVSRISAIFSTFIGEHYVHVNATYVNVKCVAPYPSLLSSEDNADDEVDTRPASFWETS
Procedure: All kinase assays were performed in 96-well plates in a 50 µL reaction volume. The kinase buffer contains 50 mM HEPES, pH 7.5, 10 mM MgCl2, 0.0015% Brij-35 and 2 mM DTT. The stop buffer contains 100 mM HEPES, pH 7.5, 0.015% Brij-35, 0.2% Coating Reagent 3 and 50 mM EDTA. Dilute the compounds to 500 µM by 100% DMSO, then transfer 10 µL of compound to a new 96-well plate as the intermediate plate, add 90 µL kinase buffer to each well. Transfer 5 µL of each well of the intermediate plate to 384-well plates. The following amounts of enzyme and substrate were used per well: kinase base buffer, FAM-labeled peptide, ATP and enzyme solution. Wells containing the substrate, enzyme, DMSO without compound were used as DMSO control. Wells containing just the substrate without enzyme were used as low control. Incubate at room temperature for 10 min. Add 10 µL peptide solution to each well. […] At last collect data on Caliper program and convert conversion values to inhibition values. Percent inhibition = (max − conversion)/(max − min) × 100. ‘max’ stands for DMSO control; ‘min’ stands for low control [20].

Row | SMILES | IC50 [1] [nM] | IC50 [2] [nM] | IC50 [3] [nM] | IC50 [4] [nM] | melting point [°C] | IC50 [5] [nM]
1 | COc1cc2c(Oc3ccc(NC(=O)c4nn(-c5ccc(F)c(Cl)c5)ccc4=O)cc3F)ccnc2cc1OCCCN1CCC(C)CC1 [Compound 42, 1-(3-Chloro-4-fluorophenyl)-N-(3-fluoro-4-((6-methoxy-7-(3-(4-methylpiperidin-1-yl)propoxy)quinolin-4-yl)oxy)phenyl)-4-oxo-1,4-dihydropyridazine-3-carboxamide] | 5 ± 1 | 1030 ± 10 | 7 ± 1 | 2 to 1030 | 112.5 to 113.7 | 1.2
2 | COc1cc2c(Oc3ccc(NC(=O)c4nn(-c5ccc(Cl)c(C(F)(F)F)c5)ccc4=O)cc3F)ccnc2cc1OCCCN1CCN(C)CC1 [Compound 52, 1-(4-Chloro-3-(trifluoromethyl)phenyl)-N-(3-fluoro-4-((6-methoxy-7-(3-(4-methylpiperazin-1-yl)propoxy)quinolin-4-yl)oxy)phenyl)-4-oxo-1,4-dihydropyridazine-3-carboxamide] | 40 ± 10 | 330 ± 30 | 150 ± 20 | 2 to 1030 | 211.7 to 212.6 | 0.8
3 | COc1cc2c(Oc3ccc(NC(=O)c4nn(-c5ccccc5)ccc4=O)cc3F)ccnc2cc1OCCCN1CCC(C)CC1 [Compound 45, N-(3-Fluoro-4-((6-methoxy-7-(3-(4-methylpiperidin-1-yl)propoxy)quinolin-4-yl)oxy)phenyl)-4-oxo-1-phenyl-1,4-dihydropyridazine-3-carboxamide] | 2950 ± 470 | 4660 ± 670 | 2010 ± 300 | – | 148.5 to 150.1 | 187
4 | COc1ccc(-n2ccc(=O)c(C(=O)Nc3ccc(Oc4ccnc5cc(OCCCN6CCC(C)CC6)c(OC)cc45)c(F)c3)n2)cc1 [Compound 41, N-(3-Fluoro-4-((6-methoxy-7-(3-(4-methylpiperidin-1-yl)propoxy)quinolin-4-yl)oxy)phenyl)-1-(4-methoxyphenyl)-4-oxo-1,4-dihydropyridazine-3-carboxamide] | 20 ± 10 | 8 ± 1 | 20 ± 10 | 2 to 1030 | 145.1 to 146.3 | 0.9
5 | COc1cc2c(Oc3ccc(NC(=O)c4nn(-c5ccccc5)ccc4=O)cc3F)ccnc2cc1OCCCN1CCOCC1 [Compound 29, N-(3-Fluoro-4-((6-methoxy-7-(3-morpholinopropoxy)quinolin-4-yl)oxy)phenyl)-4-oxo-1-phenyl-1,4-dihydropyridazine-3-carboxamide] | 200 ± 20 | 2270 ± 360 | 30 ± 10 | – | 118.7 to 119.8 | 16
6 | COc1cc2c(Oc3ccc(NC(=O)c4nn(-c5ccc(Cl)cc5)ccc4=O)cc3F)ccnc2cc1OCCCN1CCCCC1 [Compound 31, 1-(4-Chlorophenyl)-N-(3-fluoro-4-((6-methoxy-7-(3-(piperidin-1-yl)propoxy)quinolin-4-yl)oxy)phenyl)-4-oxo-1,4-dihydropyridazine-3-carboxamide] | 570 ± 20 | 690 ± 30 | 1160 ± 60 | – | 158.2 to 159.6 | 78
7 | COc1ccc(-n2ccc(=O)c(C(=O)Nc3ccc(Oc4ccnc5cc(OCCCN6CCOCC6)c(OC)cc45)c(F)c3)n2)cc1 [Compound 25, N-(3-Fluoro-4-((6-methoxy-7-(3-morpholinopropoxy)quinolin-4-yl)oxy)phenyl)-1-(4-methoxyphenyl)-4-oxo-1,4-dihydropyridazine-3-carboxamide] | 4240 ± 620 | 6750 ± 820 | 27200 ± 1440 | – | 153.8 to 155.2 | 233
8 | COc1cc2c(Oc3ccc(NC(=O)c4nn(-c5ccc(Br)cc5F)ccc4=O)cc3F)ccnc2cc1OCCCN1CCOCC1 [Compound 27, 1-(4-Bromo-2-fluorophenyl)-N-(3-fluoro-4-((6-methoxy-7-(3-morpholinopropoxy)quinolin-4-yl)oxy)phenyl)-4-oxo-1,4-dihydropyridazine-3-carboxamide] | > 50000 | > 50000 | > 50000 | – | 113.7 to 115.1 | 478
9 | COc1cc2c(Oc3ccc(NC(=O)c4nn(-c5ccc(Cl)c(C(F)(F)F)c5)ccc4=O)cc3F)ccnc2cc1OCCCN1CCCCC1 [Compound 36, 1-(4-Chloro-3-(trifluoromethyl)phenyl)-N-(3-fluoro-4-((6-methoxy-7-(3-(piperidin-1-yl)propoxy)quinolin-4-yl)oxy)phenyl)-4-oxo-1,4-dihydropyridazine-3-carboxamide] | 790 ± 60 | 1800 ± 260 | 730 ± 80 | – | 185.7 to 186.6 | 11
10 | COc1cc2c(Oc3ccc(NC(=O)c4nn(-c5ccc(F)c(Cl)c5)ccc4=O)cc3F)ccnc2cc1OCCCN1CCCCC1 [Compound 34, 1-(3-Chloro-4-fluorophenyl)-N-(3-fluoro-4-((6-methoxy-7-(3-(piperidin-1-yl)propoxy)quinolin-4-yl)oxy)phenyl)-4-oxo-1,4-dihydropyridazine-3-carboxamide] | 360 ± 40 | 1280 ± 110 | 150 ± 40 | – | 121.7 to 123.4 | 2
11 | COc1cc2c(Oc3ccc(NC(=O)c4nn(-c5ccc(F)c(Cl)c5)ccc4=O)cc3F)ccnc2cc1OCCCN1CCOCC1 [Compound 26, 1-(3-Chloro-4-fluorophenyl)-N-(3-fluoro-4-((6-methoxy-7-(3-morpholinopropoxy)quinolin-4-yl)oxy)phenyl)-4-oxo-1,4-dihydropyridazine-3-carboxamide] | 3700 ± 570 | > 50000 | 5960 ± 770 | – | 138.1 to 140.6 | 352
12 | COc1cc2c(Oc3ccc(NC(=O)c4nn(-c5ccc(F)cc5)ccc4=O)cc3F)ccnc2cc1OCCCN1CCCCC1 [Compound 30, N-(3-Fluoro-4-((6-methoxy-7-(3-(piperidin-1-yl)propoxy)quinolin-4-yl)oxy)phenyl)-1-(4-fluorophenyl)-4-oxo-1,4-dihydropyridazine-3-carboxamide] | 310 ± 10 | 990 ± 10 | 690 ± 20 | – | 149.4 to 151.1 | 17
13 | COc1cc2c(Oc3ccc(NC(=O)c4nn(-c5ccccc5)ccc4=O)cc3F)ccnc2cc1OCCCN1CCCCC1 [Compound 37, N-(3-Fluoro-4-((6-methoxy-7-(3-(piperidin-1-yl)propoxy)quinolin-4-yl)oxy)phenyl)-4-oxo-1-phenyl-1,4-dihydropyridazine-3-carboxamide] | 60 ± 10 | 180 ± 10 | 30 ± 10 | 2 to 1030 | 152.3 to 153.1 | 4
14 | COc1cc2c(Oc3ccc(NC(=O)c4nn(-c5ccc(Br)cc5F)ccc4=O)cc3F)ccnc2cc1OCCCN1CCC(C)CC1 [Compound 43, 1-(4-Bromo-2-fluorophenyl)-N-(3-fluoro-4-((6-methoxy-7-(3-(4-methylpiperidin-1-yl)propoxy)quinolin-4-yl)oxy)phenyl)-4-oxo-1,4-dihydropyridazine-3-carboxamide] | 30 ± 10 | 3 ± 1 | 5 ± 1 | 2 to 1030 | 115.8 to 117.3 | 2
